For one experiment, the system named is ENR+CD organoids. Kind of experiment: Primary screen: ATP (CellTiter-Glo 3D, CTG) cell number/viability, 2.5-D 384-well ENR+CD organoids.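 On all read-outs here: compounds given at plating and again on day 3 over a 6-day differentiation from ENR+CV stem-cell-enriched precursors, ATP measured on day 6, plate median as control.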 The conditions noted are these: primary screen; for Z.CTG: standard z score. (In general: Cellular ATP, detected with luciferase, serves as a proxy for viable cell number.)
Experiment [1] concerns ENR+CD organoids (ISC to Paneth cell differentiation). Kind of experiment: Primary screen: basal (non-stimulated) lysozyme secretion LYZ.NS, 2.5-D 384-well ENR+CD organoid differentiation. In kind it is cell-based, mouse. Conditions: primary screen; for Z.LYZ.NS: standard z score. From the text: (§1) High-throughput screening.
The test system is the same in experiment [2]. Put plainly: Primary screen: CCh-stimulated lysozyme secretion LYZ.S, 2.5-D 384-well ENR+CD organoid differentiation. In kind it is cell-based, mouse. Conditions: primary screen.
Description: as §1

The mark [3] stands for this setting: dose 0.08 uM, FC vs plate median.
[4] abbreviates: dose 0.40 uM, FC vs plate median.
Where [5] appears, read: dose 2.00 uM, FC vs plate median.
The mark [6] stands for this setting: dose 10.00 uM, FC vs plate median.
Setting [7] is: dose 0.08 uM, FC relative to plate median.
Setting [8] is: dose 0.40 uM, FC relative to plate median.
Setting [9] is: dose 2.00 uM, FC relative to plate median.
Where [10] appears, read: dose 10.00 uM, FC relative to plate median.

For the compound `CC(=O)c1c(C)c2cnc(Nc3ccc(N4CCNCC4)cn3)nc2n(C2CCCC2)c1=O.Cl` [Palbociclib (PD-0332991) HCl], the Z.CTG with ENR+CD organoids (dose 0.08 uM) is reported as 0.404; with ENR+CD organoids (dose 0.40 uM) it was −0.836; in the experiment with ENR+CD organoids (dose 2.00 uM), −0.199; in the experiment with ENR+CD organoids (dose 10.00 uM), −1.617. In addition, the Dose.FC.CTG was 0.169 log2 fold change with ENR+CD organoids (setting [3]), −0.350 log2 fold change in the experiment on ENR+CD organoids (setting [4]), −0.083 log2 fold change with ENR+CD organoids (setting [5]) and −0.677 log2 fold change in the experiment with ENR+CD organoids (setting [6]). Also, the Z.LYZ.NS in experiment [1] (dose 0.08 uM) is −0.055; in experiment [1] (dose 0.40 uM) it was −0.248; in experiment [1] (dose 2.00 uM), −0.440; in experiment [1] (dose 10.00 uM), −1.150. For the same compound, the Dose.FC.LYZ.NS in experiment [1] (setting [3]) was −0.006 log2 fold change; in experiment [1] (setting [4]) it was −0.029 log2 fold change; in experiment [1] (setting [5]) it was −0.051 log2 fold change; in experiment [1] (setting [6]), −0.132 log2 fold change. Besides, the Dose.FC.LYZ.S in experiment [2] (setting [3]) is reported as 0.004 log2 fold change; in experiment [2] (setting [4]) it was −0.042 log2 fold change; in experiment [2] (setting [5]) it was −0.122 log2 fold change; in experiment [2] (setting [6]), −0.203 log2 fold change.

Turning to `Cc1cc2c(cc1CC(=O)c1sccc1S(=O)(=O)Nc1onc(C)c1Cl)OCO2` [Sitaxentan sodium], the Dose.FC.CTG is recorded as 0.095 log2 fold change in the experiment with ENR+CD organoids (setting [7]), −0.200 log2 fold change in the experiment on ENR+CD organoids (setting [8]), −0.096 log2 fold change in the experiment on ENR+CD organoids (setting [9]) and −0.100 log2 fold change with ENR+CD organoids (setting [10]). Also, the Dose.FC.LYZ.NS in experiment [1] (setting [7]) is 0.094 log2 fold change; in experiment [1] (setting [8]), −0.052 log2 fold change; in experiment [1] (setting [9]), 0.090 log2 fold change; in experiment [1] (setting [10]) it was −0.038 log2 fold change. The Z.LYZ.NS was 0.816 in experiment [1] (dose 0.08 uM), −0.455 in experiment [1] (dose 0.40 uM), 0.782 in experiment [1] (dose 2.00 uM) and −0.332 in experiment [1] (dose 10.00 uM). Also, the Dose.FC.LYZ.S is on record as −0.017 log2 fold change in experiment [2] (setting [7]), −0.028 log2 fold change in experiment [2] (setting [8]), 0.136 log2 fold change in experiment [2] (setting [9]) and −0.047 log2 fold change in experiment [2] (setting [10]).

For the compound `Cc1c(C(=O)NN2CCCCC2)nn(-c2ccc(Cl)cc2Cl)c1-c1ccc(Cl)cc1` [Rimonabant], the Dose.FC.CTG in the experiment on ENR+CD organoids (setting [7]) came out at 0.256 log2 fold change; in the experiment with ENR+CD organoids (setting [8]), 0.206 log2 fold change; in the experiment with ENR+CD organoids (setting [9]), 0.235 log2 fold change; in the experiment with ENR+CD organoids (setting [10]), 0.063 log2 fold change. Moreover, the Dose.FC.LYZ.NS is on record as 0.108 log2 fold change in experiment [1] (setting [7]), −0.063 log2 fold change in experiment [1] (setting [8]), −0.054 log2 fold change in experiment [1] (setting [9]) and −0.044 log2 fold change in experiment [1] (setting [10]). Further, the Z.LYZ.NS in experiment [1] (dose 0.08 uM) is 0.936; in experiment [1] (dose 0.40 uM), −0.545; in experiment [1] (dose 2.00 uM), −0.467; in experiment [1] (dose 10.00 uM) it was −0.385. For the same compound, the Dose.FC.LYZ.S in experiment [2] (setting [7]) was 0.089 log2 fold change; in experiment [2] (setting [8]), −0.003 log2 fold change; in experiment [2] (setting [9]), −0.053 log2 fold change; in experiment [2] (setting [10]), −0.098 log2 fold change.

`Cc1cc(Nc2ccc(NC(=O)c3ccc(Nc4ccnc5ccccc45)cc3)cc2)nc(N)n1` [SGI-1027]: the Dose.FC.CTG in the experiment with ENR+CD organoids (setting [7]) is on record as 0.244 log2 fold change; in the experiment on ENR+CD organoids (setting [8]), 0.298 log2 fold change; in the experiment with ENR+CD organoids (setting [9]) it was 0.172 log2 fold change; with ENR+CD organoids (setting [10]) it was 0.052 log2 fold change. Moreover, the Z.CTG in the experiment on ENR+CD organoids (dose 0.08 uM) is listed as 0.583; in the experiment with ENR+CD organoids (dose 0.40 uM), 0.712; in the experiment on ENR+CD organoids (dose 2.00 uM) it was 0.412; in the experiment with ENR+CD organoids (dose 10.00 uM) it was 0.125. Moreover, the Dose.FC.LYZ.NS in experiment [1] (setting [7]) was 0.061 log2 fold change; in experiment [1] (setting [8]), 0.084 log2 fold change; in experiment [1] (setting [9]), 0.129 log2 fold change; in experiment [1] (setting [10]), −0.005 log2 fold change. The Z.LYZ.NS in experiment [1] (dose 0.08 uM) is reported as 0.528; in experiment [1] (dose 0.40 uM), 0.735; in experiment [1] (dose 2.00 uM) it was 1.123; in experiment [1] (dose 10.00 uM), −0.046. For the same compound, the Dose.FC.LYZ.S stood at 0.060 log2 fold change in experiment [2] (setting [7]), 0.145 log2 fold change in experiment [2] (setting [8]), 0.094 log2 fold change in experiment [2] (setting [9]) and 0.018 log2 fold change in experiment [2] (setting [10]).

Take `O=c1ncccn1[C@@H]1O[C@H](CO)[C@@H](O)[C@H]1O` [Zebularine]: the Dose.FC.CTG with ENR+CD organoids (dose 0.08 uM) is 0.035 log2 fold change; in the experiment on ENR+CD organoids (dose 0.40 uM), 0.000 log2 fold change; in the experiment on ENR+CD organoids (dose 2.00 uM), −0.089 log2 fold change; with ENR+CD organoids (dose 10.00 uM), −0.167 log2 fold change. Further, the Dose.FC.LYZ.NS turned out to be 0.026 log2 fold change in experiment [1] (dose 0.08 uM), 0.009 log2 fold change in experiment [1] (dose 0.40 uM), 0.095 log2 fold change in experiment [1] (dose 2.00 uM) and 0.086 log2 fold change in experiment [1] (dose 10.00 uM). In addition, the “Z.LYZ.NS (standard z score)” value in experiment [1] (dose 0.08 uM) came out at 0.223; in experiment [1] (dose 0.40 uM), 0.075; in experiment [1] (dose 2.00 uM), 0.828; in experiment [1] (dose 10.00 uM), 0.749. For the same compound, the Dose.FC.LYZ.S in experiment [2] (dose 0.08 uM) was found to be 0.092 log2 fold change; in experiment [2] (dose 0.40 uM) it was 0.077 log2 fold change; in experiment [2] (dose 2.00 uM), 0.051 log2 fold change; in experiment [2] (dose 10.00 uM), 0.102 log2 fold change.

Take `CN1CCN(c2nc(C3=C(c4c[nH]c5ccccc45)C(=O)NC3=O)c3ccccc3n2)CC1` [Sotrastaurin]: the Dose.FC.CTG in the experiment with ENR+CD organoids (setting [7]) is reported as 0.010 log2 fold change; in the experiment on ENR+CD organoids (setting [8]) it was −0.120 log2 fold change; with ENR+CD organoids (setting [9]) it was −0.272 log2 fold change; with ENR+CD organoids (setting [10]) it was −0.242 log2 fold change. Besides, the Dose.FC.LYZ.NS in experiment [1] (setting [7]) is reported as 0.193 log2 fold change; in experiment [1] (setting [8]), −0.065 log2 fold change; in experiment [1] (setting [9]), 0.014 log2 fold change; in experiment [1] (setting [10]), −0.126 log2 fold change. In addition, the Z.LYZ.NS in experiment [1] (dose 0.08 uM) is on record as 1.678; in experiment [1] (dose 0.40 uM), −0.567; in experiment [1] (dose 2.00 uM), 0.125; in experiment [1] (dose 10.00 uM), −1.101. Besides, the Dose.FC.LYZ.S is 0.097 log2 fold change in experiment [2] (setting [7]), −0.043 log2 fold change in experiment [2] (setting [8]), −0.085 log2 fold change in experiment [2] (setting [9]) and −0.164 log2 fold change in experiment [2] (setting [10]).

With `C[C@@H](O[C@H]1OCCN(Cc2n[nH]c(=O)[nH]2)[C@H]1c1ccc(F)cc1)c1cc(C(F)(F)F)cc(C(F)(F)F)c1` [Aprepitant], the Dose.FC.CTG in the experiment with ENR+CD organoids (dose 0.08 uM) is reported as 0.313 log2 fold change; in the experiment on ENR+CD organoids (dose 0.40 uM), 0.403 log2 fold change; in the experiment on ENR+CD organoids (dose 2.00 uM) it was 0.145 log2 fold change; with ENR+CD organoids (dose 10.00 uM) it was 0.051 log2 fold change. The Dose.FC.LYZ.NS in experiment [1] (dose 0.08 uM) was 0.097 log2 fold change; in experiment [1] (dose 0.40 uM), 0.061 log2 fold change; in experiment [1] (dose 2.00 uM), 0.005 log2 fold change; in experiment [1] (dose 10.00 uM), −0.090 log2 fold change. Also, the “Z.LYZ.NS (standard z score)” value in experiment [1] (dose 0.08 uM) is recorded as 0.840; in experiment [1] (dose 0.40 uM), 0.532; in experiment [1] (dose 2.00 uM), 0.043; in experiment [1] (dose 10.00 uM), −0.780. The Dose.FC.LYZ.S in experiment [2] (dose 0.08 uM) is 0.115 log2 fold change; in experiment [2] (dose 0.40 uM) it was 0.107 log2 fold change; in experiment [2] (dose 2.00 uM), −0.007 log2 fold change; in experiment [2] (dose 10.00 uM), −0.119 log2 fold change.

In the case of `CC[C@H](C)C(=O)O[C@H]1C[C@@H](C)C=C2C=C[C@H](C)[C@H](CC[C@@H]3C[C@@H](O)CC(=O)O3)[C@H]21` [Lovastatin], the “Dose.FC.CTG (log2 fold change)” value in the experiment on ENR+CD organoids (dose 0.08 uM) is on record as −0.322; in the experiment on ENR+CD organoids (dose 0.40 uM), −0.492; in the experiment on ENR+CD organoids (dose 2.00 uM), −1.174; in the experiment on ENR+CD organoids (dose 10.00 uM) it was −1.391. For the same compound, the “Dose.FC.LYZ.NS (log2 fold change)” value in experiment [1] (dose 0.08 uM) is given as 0.002; in experiment [1] (dose 0.40 uM), −0.057; in experiment [1] (dose 2.00 uM), −0.279; in experiment [1] (dose 10.00 uM), −0.271. Further, the “Z.LYZ.NS (standard z score)” value in experiment [1] (dose 0.08 uM) was 0.017; in experiment [1] (dose 0.40 uM), −0.492; in experiment [1] (dose 2.00 uM), −2.430; in experiment [1] (dose 10.00 uM) it was −2.362. In addition, the “Dose.FC.LYZ.S (log2 fold change)” value in experiment [2] (dose 0.08 uM) is recorded as −0.023; in experiment [2] (dose 0.40 uM), −0.049; in experiment [2] (dose 2.00 uM), −0.398; in experiment [2] (dose 10.00 uM), −0.409.
